# Patent US9844564B2 (Industrial Cooperation Foundation Chonbuk National …, priority 2012, dated 2017)
# How the values were obtained:
# [1] = test system: DOX-induced cardio and hepatotoxicities; test: Doxorubicin (DOX)-induced acute heart failure animal model; assay type: in vivo, mice
# Experimental: This animal model is associated with an increase in oxidative stress and causes significant hepatopathy after DOX injection.
# Specifically, 20-week-old male mice were injected intraperitoneally once with 20 mg/kg of DOX. […] Mortality was observed up to 10 days after DOX administration. After 10 days, the mice were sacrificed and the expressions of enzymes in the heart and liver tissues were analyzed. The cardiac function of the mice was also measured by echocardiogram.
# [2] = test system: RAW 264.7 cells; test: NO production in LPS-treated cells (Griess reaction); assay type: cell-based; conditions: LPS-treated RAW 264.7, Griess
# Experimental: The concentration of NO was determined using a colorimetric assay based on the Griess reaction. 50 μL of cell culture medium was collected and given 100 μL of Griess reagent (6 mg/mL) at room temperature for 10 min, and then the NO concentration was determined by measuring the absorbance at 540 nm using a microplate reader (Synergy MX, BioTek Instruments, US). The NO standard curve was constructed using known concentrations of sodium nitrite.
# [3] = H2O2 scavenging by PVAX or MnP-PVAX microparticles (amplex red assay); conditions: 10 μM H2O2, 1 mg microparticles, 37° C., 6 or 24 h
# Experimental: After short centrifugation, the concentration of H2O2 in the supernatant was measured using an amplex red assay (Invitrogen, US).
# [4] = test system: OVA-induced allergic airway inflammation; test: Mouse model of ovalbumin (OVA)-induced allergic asthma; assay type: in vivo, BALB/c mice; conditions: OVA-sensitized and challenged mice, ELISA
# Experimental: On days 15, 16 and 17, mice were challenged intranasally with 50 μg of OVA. […] A sham group was given PBS only. On day 19, the mice were sacrificed and lung lobes were isolated along with the trachea. Lungs were also lavaged with 500 μL of PBS introduced through the trachea. BALF (bronchiolavage fluid) was centrifuged at 300×g for 5 min, and cells were rinsed and resuspended with PBS. Aliquots of the cell suspension were applied to slides by Cytospin (Hanil, Korea) at 500×g for 5 minutes allowed to air dry and stained with modified Wright's stain (Hema-3, Fisher Scientific). The numbers of macrophages, eosinophils, neutrophils and lymphocytes were determined morphologically and a minimum of 200 cells per slide were counted under the microscope (Eclipse, Nikon, Japan). The level of TNF-α in the supernatant of BALF was measured with an ELISA kit as advised by manufacturer (eBioScience, San Diego, Calif.). Lungs were perfused with PBS, removed and fixed in 4% buffered formalin. Lungs were embedded in paraffin and serial paraffin sections (3 μm) were cut. The sections were stained with hematoxylin (Yeongdong Pharma, Korea) and eosin (Showa Chemicals, Japan). Results are illustrated in FIGS. 49-51.
# [5] = test system: RAW 264.7 cells activated with PMA; test: ROS production in PMA-activated cells (DCFH-DA, flow cytometry); assay type: cell-based; conditions: PMA-stimulated; VA 0.5 mM, PVAX 100 μg
# Experimental: The cells were treated with […] to stimulate the production of reactive oxygen species in the cells. After 4 hours, the cells were treated with DCFH-DA (dichlorofluorescin-diacetate), after which DCF ([…]) (a marker of intracellular oxidative stress) was analyzed using a flow cytometer (Becton Dickinson, US).
# [6] = Particle stability versus loading ratio; assay type: physicochemical
# Description: However, PVAX allowed greater ratio of VA-CHDM (up to 60%), providing greater therapeutic effects without significant compromise of the stability.
# [7] = echocardiogram, DOX-treated mice
compound,measurement,setting,value
"COc1cccc2c1C(=O)c1c(O)c3c(c(O)c1C2=O)C[C@@](O)(C(=O)CO)C[C@@H]3O[C@H]1C[C@H](N)[C@H](O)[C@H](C)O1 [DOX, doxorubicin]",survival,"[1]; 10 days after DOX, p<0.05",35%
same,"ejection fraction (EF), mean",[1]; [7],25.54
same,"fractional shortening (FS), mean",[1]; [7],50.41
same,mortality rate,"[1]; observation up to 10 days after DOX 20 mg/kg i.p., PVAX daily",65%
"C1=Cc2cc3ccc(cc4nc(cc5ccc(cc1n2)[nH]5)C=C4)[nH]3.[Mn] [MnP, manganese porphyrin]",inhibitory effects on NO production,[2],"inhibitory effects on NO production, not significant"
same,H2O2 scavenging activity,[3],H2O2 scavenging activity in a time-dependent manner
"COc1cc(CO)ccc1O [VA, 4-(hydroxymethyl)-2-methoxyphenol]",expression of TNF-α in BALF,[4],suppressed the expression of TNF-α
same,inhibitory effects on NO production,[2],"inhibitory effects on NO production, not significant"
same,intracellular ROS generation (DCF fluorescence),[5],only slightly suppressed ROS generation
poly(p-hydroxy-benzyl alcohol (HBA)-oxalic acid) copolymer [HPOX],particle stability / feasibility of loading,[6],not feasible due to instability of the particles
